From patent US20080015181A1, “Pharmaceutical Compositions Comprising Droxidopa” (Chelsea Therapeutics, Inc., priority 2006, published 2008)

What was measured:
MAO-A than MAO-B = settings: known; cited from earlier work
[1] = compound co-administered with droxidopa, relative to droxidopa alone; rat
Protocol: The pharmacokinetic properties of droxidopa combinations according to the invention were evaluated in male Sprague Dawley rats. Four test groups with four rats in each group were established. Group 1 was administered droxidopa alone as a baseline group. Group 2 was administered droxidopa in combination with the COMT inhibitor entacapone. Group 3 was administered droxidopa in combination with the cholinesterase inhibitor pyridostigmine. Group 4 was administered droxidopa in combination with the MAOI nialamide. For each group, the droxidopa or droxidopa combination was formulated with a vehicle formed of a water solution containing 1% carboxymethylcellulose with 0.2% TWEEN® 80 emulsifier.
Rats in each group were given a single gavage dose of droxidopa alone or the droxidopa combination, the time of dosing being recorded as time=0. Dosing was based upon the weight of the subject and was adjusted to provide all test subjects a droxidopa dose of approximately 100 mg per kg of body weight. […]
As a standard, plasma droxidopa concentration in rats administered the drug vehicle with no droxidopa or droxidopa combinations present was also evaluated, and no droxidopa was detected over a 24 hour period in plasma from the rats administered the vehicle alone. Likewise, no droxidopa was detected in any subjects prior to dosing of the droxidopa or droxidopa combinations. […]

plasma norepinephrine = assay: Plasma norepinephrine concentration after dosing of droxidopa or droxidopa combinations in rats; type: in vivo, male Sprague Dawley rats; settings: 2 hours post-dosing, rat
Protocol: The pharmacokinetic properties of droxidopa combinations according to the invention were evaluated in male Sprague Dawley rats. Four test groups with four rats in each group were established. Group 1 was administered droxidopa alone as a baseline group. Group 2 was administered droxidopa in combination with the COMT inhibitor entacapone. Group 3 was administered droxidopa in combination with the cholinesterase inhibitor pyridostigmine. Group 4 was administered droxidopa in combination with the MAOI nialamide. For each group, the droxidopa or droxidopa combination was formulated with a vehicle formed of a water solution containing 1% carboxymethylcellulose with 0.2% TWEEN® 80 emulsifier. […] The amounts of entacapone, pyridostigmine, and nialamide used in formulations 2-7 were provided as “low” doses and “high” doses based upon disclosure in the literature of generally accepted dosage ranges for their respective known indications.
Rats in each group were given a single gavage dose of droxidopa alone or the droxidopa combination, the time of dosing being recorded as time=0. Dosing was based upon the weight of the subject and was adjusted to provide all test subjects a droxidopa dose of approximately 100 mg per kg of body weight. Blood samples (approximately 100 μL) were collected at approximately 5, 15, and 30 minutes, and at approximately 1, 2, 4, 8, and 24 hours after dosing. […]

For `O=C(NCCN1CCOCC1)c1ccc(Cl)cc1` [moclobemide], the “selectivity for MAO-A than MAO-B” value (MAO-A than MAO-B) is listed as “approximately three times more selective for MAO-A than MAO-B”.
In the case of `CN(C)C(=O)Oc1ccc[n+](C)c1` [pyridostigmine, 3-dimethylcarbamoyloxy-1-methylpyridinium], the “effect on droxidopa half-life (in words)” value [1] is reported as “increase in droxidopa half-life”.
With `CCN(CC)C(=O)/C(C#N)=C/c1cc(O)c(O)c([N+](=O)[O-])c1` [entacapone, [(E)-2-cyano-N,N-diethyl-3-(3,4-dihydroxy-5-nitrophenyl)propenamide]] the “plasma norepinephrine concentration in relation to treatment with droxidopa alone (in words)” value (plasma norepinephrine; compound combined with droxidopa) was “increased plasma norepinephrine concentration beyond the effect of droxidopa alone”.
For `NC(C(=O)O)C(O)c1ccc(O)c(O)c1` (stereo not drawn) [droxidopa, threo-3-(3,4-dihydroxyphenyl)serine], the “increase in plasma norepinephrine concentration” value (plasma norepinephrine; droxidopa alone versus vehicle alone) was roughly 5 fold.
